Measurements: the supplement of paper PMC6723410

System: GUMC-403
Experiment: viability at highest tested concentration (max response) relative to DMSO (% of DMSO control); higher = less cytotoxic
Settings: library / dose series: MIPE library, 11-point 1:3 dilution, 48 h
Summary of the method: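 Patient-derived GUMC-403 papilloma cells grown by conditional reprogramming were plated at 700/well in 5 μL F + Y medium in 1536-well plates and incubated overnight at 37 °C. They then received 23 nL of MIPE 4.0 compounds by pin tool (11-point 1:3 series) for 48 h. CellTiter-Glo luminescence was read on a ViewLux and normalised with DMSO wells as 100% and empty wells as 0%. The value is viability at the highest tested concentration relative to DMSO control.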

COC(=O)[C@@H]1[C@H]2C[C@H]3c4[nH]c5ccccc5c4CCN3C[C@@H]2CC[C@@H]1O
viability (top concentration 46.1 µM): 128

CC(C)=CCC/C(C)=C/CC/C(C)=C/CSc1ccccc1C(=O)O
viability (top concentration 46.1 µM): 72

CC(O)(C[S+](=O)([O-])c1ccc(F)cc1)C(=O)Nc1ccc(C#N)c(C(F)(F)F)c1 (stereo unspecified)
viability (top concentration 46.1 µM): 114

C=CC[C@@H]1/C=C(\C)C[C@H](C)C[C@H](OC)[C@H]2O[C@@](O)(C(=O)C(=O)N3CCCC[C@H]3C(=O)O[C@H](/C(C)=C/[C@@H]3CC[C@@H](O)[C@H](OC)C3)[C@H](C)[C@@H](O)CC1=O)[C@H](C)C[C@@H]2OC
viability (top concentration 46.1 µM): 126

OC1=CC=C(C=C1)\C2=C\C(=O)C3=C(O2)C=C(O)C=C3O
viability (top concentration 46.1 µM): 138

O=C(O)c1ccc(-n2nc(-c3ccccc3O)nc2-c2ccccc2O)cc1
viability (top concentration 46.1 µM): 80.9

NC(=O)c1ncn([C@@H]2O[C@H](CO)[C@@H](O)[C@H]2O)c1O
viability (top concentration 46.1 µM): 116

CNNCc1ccc(C(=O)NC(C)C)cc1
viability (top concentration 46.1 µM): 149

O=[S+]([O-])(c1cccc2cnccc12)N1CCCNCC1
viability (top concentration 46.1 µM): 128

CC(S)C(=O)NCC(=O)O (stereo unspecified)
viability (top concentration 46.1 µM): 135

CN(C1CCc2c(c3ccccc3n2CC(=O)O)C1)[S+](=O)([O-])c1ccc(F)cc1 (stereo unspecified)
viability (top concentration 46.1 µM): 114

O=c1[nH]c(=O)n(C2CCCO2)cc1F (stereo unspecified)
viability (top concentration 92.2 µM): 104

O=C1\C=C/C=C2/[C@H]3CNC[C@H](C3)CN12
viability (top concentration 46.1 µM): 136

C[C@H](NCc1ccc(OCc2cccc(F)c2)cc1)C(N)=O
viability (top concentration 46.1 µM): 80.3

[NH2][Pt]1([NH2])[O]CC(=O)[O]1
viability (top concentration 46.1 µM): 142

CC1(CN2CCC(n3c(=O)[nH]c4ccccc43)CC2)OCc2ccccc2-n2cccc21 (stereo unspecified)
viability (top concentration 46.1 µM): 82.8

OCCn1cc(-c2cnc3nnn(Cc4ccc5ncccc5c4)c3n2)cn1
viability (top concentration 46.1 µM): 106

Cc1ccc(C(=O)c2cc(O)c(O)c([N+](=O)[O-])c2)cc1
viability (top concentration 46.1 µM): 102

C[C@@H]\1CC(=O)N\N=C1C2=CC=C(NN=C(C#N)C#N)C=C2
viability (top concentration 46.1 µM): 92.1

COC1=CC=C(C=C1O)C/2=C/C(=O)C3=C(O2)C=C(O)C=C3O
viability (top concentration 46.1 µM): 76.3

Oc1cc(O)cc(/C=C/c2ccc(O)c(O)c2)c1
viability (top concentration 46.1 µM): 91.7

CN[C@@H](C)C(=O)N[C@H]1CCCC[C@H]2CC[C@@H](C(=O)N[C@@H](c3ccccc3)c3cn(CCCCc4ccc(CCCCn5cc([C@@H](NC(=O)[C@@H]6CC[C@@H]7CCCC[C@H](NC(=O)[C@H](C)NC)C(=O)N76)c6ccccc6)nn5)cc4)nn3)N2C1=O
viability (top concentration 46.1 µM): 110

CC(C)N(CC[C@H](c1ccccc1)c1cc(CO)ccc1O)C(C)C
viability (top concentration 46.1 µM): 137

Clc1ccc(COC(Cn2ccnc2)c2ccc(Cl)cc2Cl)cc1 (stereo unspecified)
viability (top concentration 46.1 µM): 117

N[C@@H]1CONC1=O
viability (top concentration 46.1 µM): 127

COc1cc([C@@H]2c3cc4c(cc3[C@@H](O)C3COC(=O)C32)OCO4)cc(OC)c1O (stereo partly specified)
viability (top concentration 46.1 µM): 117

N\C1=N\C2=C(N=C[N]2COCCO)C(=O)N1
viability (top concentration 46.1 µM): 117

COc1cccc(N(C)C(=S)Oc2ccc3c(c2)CCCC3)n1
viability (top concentration 46.1 µM): 126

COc1ccc2cc1Oc1ccc(cc1)C[C@H]1c3cc(c(OC)cc3CCN1C)Oc1c(OC)c(OC)cc3c1[C@H](C2)N(C)CC3
viability (top concentration 46.1 µM): 86

Cc1cccc(-c2n[nH]cc2-c2ccc3ncccc3n2)n1
viability (top concentration 46.1 µM): 126

CC(C)C[C@H](NC(=O)[C@@H](O)[C@H](N)Cc1ccccc1)C(=O)O
viability (top concentration 46.1 µM): 102

CN(C(=O)c1ccc(F)cc1C(F)(F)F)C1CCN(c2nnc(-c3ccnn3C)c3ccccc23)CC1
viability (top concentration 46.1 µM): 78.1

O=C(C1CC1)N1CC[C@@H](Cn2c(-c3ccc(-c4ccc5occc5c4)cc3)nc3cnccc32)C1
viability (top concentration 46.1 µM): 124

Fc1ccc([C@@H]2CCNC[C@H]2COc2ccc3c(c2)OCO3)cc1
viability (top concentration 46.1 µM): 97.2

O=c1oc2cc(O)ccc2s1
viability (top concentration 46.1 µM): 102

CCOc1cc2c(c(F)c1OCC)C(=N)N(CC(=O)c1cc(N3CCOCC3)c(OC)c(C(C)(C)C)c1)C2
viability (top concentration 46.1 µM): 124

COC(=O)Nc1nc2cc(C(=O)c3ccc(F)cc3)ccc2[nH]1
viability (top concentration 46.1 µM): 88

CC(C)c1c(C(=O)Nc2ccccc2)c(-c2ccccc2)c(-c2ccc(F)cc2)n1CC[C@@H](O)C[C@@H](O)CC(=O)[O-]
viability (top concentration 46.1 µM): 70.3

CCN1\C=C(C(O)=O)/C(=O)C2=C1C=C(N3CCN(C)CC3)C(=C2)F
viability (top concentration 46.1 µM): 115

c1cc(N[C@@H]2CCNC2)nc(-c2cnc3ccc(-c4cn[nH]c4)cn23)c1
viability (top concentration 46.1 µM): 122

NC/1=N/C(=O)N/C=C1F
viability (top concentration 46.1 µM): 104
